Source: the NIST ThermoML archive (doi:10.1021/acs.jced.8b01146)
Where “and” joins values, the source holds several entries; their conditions need not be identical. Equal values may be shown once.

Key:
[1] = xn = mol fraction of the nth substance listed; conditions: 100 kPa, Liquid, Vibrating tube method
[2] = excess molar enthalpy (molar enthalpy of mixing); xn = mol fraction of the nth substance listed; conditions: 100 kPa, Liquid, Calvet calorimetry

CC1=CCC(=O)O1 [5-methylfuran-2(3H)-one] + O
Conditions | excess molar enthalpy, [2] | mass density, [1]
288.15 K, x1 = 0.001003 | -0.000397 kcal/mol and -0.000394 kcal/mol | 999.878 kg/m3 and 999.871 kg/m3
288.15 K, x1 = 0.002004 | -0.000729 kcal/mol | 1000.64 kg/m3
288.15 K, x1 = 0.002005 | -0.000727 kcal/mol | 1000.64 kg/m3
288.15 K, x1 = 0.003003 | -0.00101 kcal/mol | 1001.39 kg/m3
288.15 K, x1 = 0.003004 | -0.00101 kcal/mol | 1001.39 kg/m3
288.15 K, x1 = 0.004 | -0.00125 kcal/mol | 1002.15 kg/m3
288.15 K, x1 = 0.004001 | -0.00123 kcal/mol | 1002.14 kg/m3
288.15 K, x1 = 0.004995 | -0.00143 kcal/mol | 1002.91 kg/m3
288.15 K, x1 = 0.004996 | -0.00141 kcal/mol | 1002.92 kg/m3
288.15 K, x1 = 0.00599 | -0.00152 kcal/mol and -0.00155 kcal/mol | 1003.65 kg/m3 and 1003.64 kg/m3
298.15 K, x1 = 0.001003 | -2.65e-05 kcal/mol | 997.759 kg/m3
298.15 K, x1 = 0.001004 | -2.65e-05 kcal/mol | 997.756 kg/m3
298.15 K, x1 = 0.002004 | -6.21e-06 kcal/mol | 998.467 kg/m3
298.15 K, x1 = 0.002006 | -6.21e-06 kcal/mol | 998.464 kg/m3
298.15 K, x1 = 0.003003 | 6.57e-05 kcal/mol | 999.156 kg/m3
298.15 K, x1 = 0.003005 | 6.05e-05 kcal/mol | 999.156 kg/m3
298.15 K, x1 = 0.004 | 0.000175 kcal/mol | 999.847 kg/m3
298.15 K, x1 = 0.004003 | 0.000175 kcal/mol | 999.843 kg/m3
298.15 K, x1 = 0.004993 | 0.000335 kcal/mol | 1000.51 kg/m3
298.15 K, x1 = 0.004998 | 0.000332 kcal/mol | 1000.53 kg/m3
298.15 K, x1 = 0.005987 | 0.000559 kcal/mol | 1001.2 kg/m3
298.15 K, x1 = 0.005992 | 0.000571 kcal/mol | 1001.21 kg/m3
308.15 K, x1 = 0.001003 | 0.000327 kcal/mol and 0.000325 kcal/mol | 994.684 kg/m3
308.15 K, x1 = 0.002003 | 0.000693 kcal/mol | 995.33 kg/m3
308.15 K, x1 = 0.002004 | 0.000693 kcal/mol | 995.328 kg/m3
308.15 K, x1 = 0.003002 | 0.0011 kcal/mol | 995.967 kg/m3
308.15 K, x1 = 0.003003 | 0.0011 kcal/mol | 995.967 kg/m3
308.15 K, x1 = 0.003999 | 0.00155 kcal/mol | 996.597 kg/m3
308.15 K, x1 = 0.004 | 0.00153 kcal/mol | 996.594 kg/m3
308.15 K, x1 = 0.004994 | 0.00204 kcal/mol | 997.199 kg/m3
308.15 K, x1 = 0.004995 | 0.00202 kcal/mol | 997.205 kg/m3
308.15 K, x1 = 0.005987 | 0.00257 kcal/mol | 997.78 kg/m3
308.15 K, x1 = 0.00599 | 0.00258 kcal/mol | 997.837 kg/m3
318.15 K, x1 = 0.001003 | 0.000667 kcal/mol | 990.808 kg/m3 and 990.803 kg/m3
318.15 K, x1 = 0.002003 | 0.00136 kcal/mol and 0.00137 kcal/mol | 991.392 kg/m3 and 991.396 kg/m3
318.15 K, x1 = 0.003002 | 0.00211 kcal/mol and 0.0021 kcal/mol | 991.977 kg/m3 and 991.98 kg/m3
318.15 K, x1 = 0.003998 | 0.00286 kcal/mol | 992.55 kg/m3
318.15 K, x1 = 0.003999 | 0.00286 kcal/mol | 992.546 kg/m3
318.15 K, x1 = 0.004993 | 0.00369 kcal/mol and 0.00367 kcal/mol | 993.112 kg/m3 and 993.102 kg/m3
318.15 K, x1 = 0.005986 | 0.00455 kcal/mol | 993.663 kg/m3
318.15 K, x1 = 0.005987 | 0.00456 kcal/mol | 993.668 kg/m3

O=C1CCCO1 [γ-butyrolactone] + O
Conditions | excess molar enthalpy, [2] | mass density, [1]
288.15 K, x1 = 0.00118 | -0.000825 kcal/mol | 999.977 kg/m3
288.15 K, x1 = 0.001181 | -0.000827 kcal/mol | 999.978 kg/m3
288.15 K, x1 = 0.002358 | -0.00163 kcal/mol | 1000.85 kg/m3
288.15 K, x1 = 0.003533 | -0.0024 kcal/mol | 1001.72 kg/m3
288.15 K, x1 = 0.003534 | -0.0024 kcal/mol | 1001.72 kg/m3
288.15 K, x1 = 0.004705 | -0.00315 kcal/mol | 1002.58 kg/m3
288.15 K, x1 = 0.004706 | -0.00315 kcal/mol | 1002.59 kg/m3
288.15 K, x1 = 0.005874 | -0.00388 kcal/mol | 1003.43 kg/m3
288.15 K, x1 = 0.005876 | -0.00387 kcal/mol | 1003.43 kg/m3
288.15 K, x1 = 0.007042 | -0.00458 kcal/mol | 1004.27 kg/m3
288.15 K, x1 = 0.007044 | -0.00458 kcal/mol | 1004.28 kg/m3
298.15 K, x1 = 0.001179 | -0.000598 kcal/mol | 997.864 kg/m3
298.15 K, x1 = 0.002356 | -0.00117 kcal/mol | 998.672 kg/m3
298.15 K, x1 = 0.00353 | -0.00171 kcal/mol | 999.474 kg/m3
298.15 K, x1 = 0.004701 | -0.00224 kcal/mol | 1000.27 kg/m3
298.15 K, x1 = 0.005869 | -0.00275 kcal/mol | 1001.06 kg/m3
298.15 K, x1 = 0.007036 | -0.00324 kcal/mol | 1001.84 kg/m3
308.15 K, x1 = 0.001179 | -0.000363 kcal/mol and -0.000361 kcal/mol | 994.794 kg/m3 and 994.797 kg/m3
308.15 K, x1 = 0.002356 | -0.0007 kcal/mol and -0.000698 kcal/mol | 995.554 kg/m3 and 995.552 kg/m3
308.15 K, x1 = 0.00353 | -0.00101 kcal/mol | 996.301 kg/m3
308.15 K, x1 = 0.003531 | -0.00101 kcal/mol | 996.302 kg/m3
308.15 K, x1 = 0.004702 | -0.00131 kcal/mol | 997.038 kg/m3
308.15 K, x1 = 0.004703 | -0.0013 kcal/mol | 997.039 kg/m3
308.15 K, x1 = 0.00587 | -0.00158 kcal/mol | 997.774 kg/m3
308.15 K, x1 = 0.005871 | -0.00158 kcal/mol | 997.78 kg/m3
308.15 K, x1 = 0.007038 | -0.00184 kcal/mol | 998.505 kg/m3 and 998.496 kg/m3
318.15 K, x1 = 0.001181 | -0.000116 kcal/mol and -0.000115 kcal/mol | 990.926 kg/m3 and 990.925 kg/m3
318.15 K, x1 = 0.002359 | -0.000209 kcal/mol and -0.000208 kcal/mol | 991.631 kg/m3 and 991.634 kg/m3
318.15 K, x1 = 0.003534 | -0.000283 kcal/mol and -0.000286 kcal/mol | 992.336 kg/m3 and 992.333 kg/m3
318.15 K, x1 = 0.004706 | -0.000346 kcal/mol | 993.03 kg/m3
318.15 K, x1 = 0.004707 | -0.000343 kcal/mol | 993.03 kg/m3
318.15 K, x1 = 0.005875 | -0.00039 kcal/mol | 993.721 kg/m3
318.15 K, x1 = 0.005876 | -0.000386 kcal/mol | 993.713 kg/m3
318.15 K, x1 = 0.007043 | -0.000418 kcal/mol | 994.396 kg/m3
318.15 K, x1 = 0.007044 | -0.000413 kcal/mol | 994.396 kg/m3

CC1CCC(=O)O1 (stereo not given) [γ-valerolactone] + O
Conditions | excess molar enthalpy, [2] | mass density, [1]
288.15 K, x1 = 0.000948 | -0.00117 kcal/mol | 999.61 kg/m3
288.15 K, x1 = 0.001895 | -0.0023 kcal/mol | 1000.12 kg/m3
288.15 K, x1 = 0.00284 | -0.00341 kcal/mol | 1000.62 kg/m3
288.15 K, x1 = 0.003783 | -0.00447 kcal/mol | 1001.12 kg/m3
288.15 K, x1 = 0.004724 | -0.00551 kcal/mol | 1001.62 kg/m3
288.15 K, x1 = 0.005663 | -0.00652 kcal/mol | 1002.11 kg/m3
298.15 K, x1 = 0.000947 | -0.000872 kcal/mol | 997.5 kg/m3
298.15 K, x1 = 0.001893 | -0.00171 kcal/mol | 997.952 kg/m3 and 997.948 kg/m3
298.15 K, x1 = 0.002836 | -0.00252 kcal/mol | 998.397 kg/m3
298.15 K, x1 = 0.002837 | -0.00253 kcal/mol | 998.399 kg/m3
298.15 K, x1 = 0.003778 | -0.00331 kcal/mol | 998.844 kg/m3
298.15 K, x1 = 0.003779 | -0.00331 kcal/mol | 998.843 kg/m3
298.15 K, x1 = 0.004718 | -0.00407 kcal/mol | 999.282 kg/m3
298.15 K, x1 = 0.004719 | -0.00406 kcal/mol | 999.28 kg/m3
298.15 K, x1 = 0.005658 | -0.00479 kcal/mol and -0.00481 kcal/mol | 999.717 kg/m3 and 999.723 kg/m3
308.15 K, x1 = 0.000947 | -0.000574 kcal/mol | 994.435 kg/m3
308.15 K, x1 = 0.001892 | -0.00113 kcal/mol | 994.839 kg/m3
308.15 K, x1 = 0.001893 | -0.00113 kcal/mol | 994.839 kg/m3
308.15 K, x1 = 0.002835 | -0.00165 kcal/mol | 995.239 kg/m3
308.15 K, x1 = 0.002836 | -0.00165 kcal/mol | 995.239 kg/m3
308.15 K, x1 = 0.003777 | -0.00215 kcal/mol | 995.637 kg/m3
308.15 K, x1 = 0.003778 | -0.00215 kcal/mol | 995.634 kg/m3
308.15 K, x1 = 0.004716 | -0.00262 kcal/mol | 996.023 kg/m3
308.15 K, x1 = 0.004718 | -0.00261 kcal/mol | 996.023 kg/m3
308.15 K, x1 = 0.005656 | -0.00306 kcal/mol and -0.00308 kcal/mol | 996.412 kg/m3 and 996.415 kg/m3
318.15 K, x1 = 0.000946 | -0.000275 kcal/mol | 990.573 kg/m3
318.15 K, x1 = 0.000947 | -0.000275 kcal/mol | 990.572 kg/m3
318.15 K, x1 = 0.001891 | -0.000526 kcal/mol | 990.933 kg/m3
318.15 K, x1 = 0.001892 | -0.000526 kcal/mol | 990.933 kg/m3
318.15 K, x1 = 0.002835 | -0.000758 kcal/mol | 991.289 kg/m3
318.15 K, x1 = 0.003776 | -0.00097 kcal/mol | 991.639 kg/m3
318.15 K, x1 = 0.003777 | -0.000966 kcal/mol | 991.641 kg/m3
318.15 K, x1 = 0.004716 | -0.00115 kcal/mol and -0.00114 kcal/mol | 991.985 kg/m3 and 991.983 kg/m3
318.15 K, x1 = 0.005655 | -0.00131 kcal/mol and -0.00132 kcal/mol | 992.329 kg/m3 and 992.332 kg/m3
